Data: publication PMC5064022, “KCNE1 induces fenestration in the Kv7.1/KCNE1 channel complex that allows for highly specific pharmacological targeting” (Nature Communications, 2016)

Experiments:
Type in all cases: cell-based
[1] = biological target: T1, Kv7.1/KCNE1 (Homo sapiens, UniProt P15382+P51787); assay: Two electrode voltage clamp of Kv7.1/KCNE1 currents in Xenopus oocytes; conditions: 10 µM; percent change in current amplitude at end of pulse to +40 mV
Description: Template cDNAs (wildtype or mutant human Kv7.1 in pSGEM, wildtype human KCNE1 in pSP64) were linearized with a suitable restriction enzyme (Nhe I/pSGEM, Eco RI/pSP64). cRNA was synthesized from 1 μg linearized cDNA by in vitro transcription (mMessage mMachine T7 or SP6 kit, Ambion, Life Technologies Darmstadt, Germany). cRNA concentrations were determined by photometry (Nanodrop, Peqlab, Erlangen, Germany) and cRNA quality was checked by agarose gel electrophoresis.
Oocytes were commercially obtained from EcoCyte Bioscience (Castrop-Rauxel, Germany). Injection of stage 4 or 5 oocytes was performed using a nanoliter injector 2000 (WPI, Berlin, Germany). For standard pharmacological measurements, each oocyte was injected with 5 ng Kv7.1 cRNA alone or with 1 ng KCNE1 cRNA. To investigate the influence of KCNE1 on AC-1 sensitivity of Kv7.1 tetramers, 5 ng Kv7.1 cRNA was injected with different amounts of KCNE1 cRNA (0 ng, 0.005 ng, 0.05 ng, 0.5 ng and 5 ng). Injected oocytes were maintained in an incubator at 17 °C for 4–5 days in standard Barth solution (EcoCyte Bioscience, Castrop-Rauxel, Germany) supplemented with 90 μg ml^−1 theophylline, 63 μg ml^−1 penicillin, 40 μg ml^−1 streptomycin, and 100 μg ml^−1 gentamycin until used for two electrode voltage clamp (TEVC) measurements.
TEVC measurements were performed using a TurboTec-10CD amplifier (npi Electronic, Tamm, Germany) and an ITC-16 AD/DA-interface (Instrutech Corporation, Port Washington, New York, USA). Pulse and PulseFit software (HEKA, Lambrecht/Pfalz, Germany) was used for data acquisition and analysis. During TEVC recordings, oocytes were constantly perfused with control solution (ND96, containing in mM: 96 NaCl, 4 KCl, 1.8 CaCl2, 1 MgCl2, 5 mM HEPES, pH 7.6 supplemented 0.1–0.3% DMSO). AC solutions were freshly prepared in ND96 from a 10 mM DMSO stock solution. Glass capillaries were pulled to a fine point to produce current and voltage electrodes that were back-filled with 3 M KCl. When filled with this solution, electrode resistances ranged from 0.5–1.5 MΩ. Different voltage pulse protocols were used as follows: (1) To study the inhibitory effect of different AC derivatives, Kv7.1/KCNE1 currents were elicited by repetitive 7 s pulses to +40 mV applied every 30 s from a holding potential of −80 mV. (2) To analyse the voltage dependence of channel activation, currents were elicited by 10 s pulses to test voltages between −100 and +60 mV, applied in 20 mV increments from a holding potential of −80 mV. Tail currents were recorded at −120 mV. For control we always expressed KCNE1 alone along mutant channels and mutant currents were only taken into account when it reached at least 2.5- to 3-fold the size of the background Xenopus-Kv7.1/hKCNE1 currents.
Electrophysiological data were analysed using PulseFit software (HEKA, Lambrecht/Pfalz, Germany) and GraphPad Prism (GraphPad Software, Inc., La Jolla, California, USA). Channel inhibition was determined as reduction of whole cell current amplitude at the end of a 7 s test pulse to +40 mV. The concentration of compound that caused half-maximal inhibition (IC50) were determined using the Hill equation: Idrug/Imax=1/(1+[C/IC50]^H), where Idrug is the current amplitude in the presence of the drug, Imax is the current amplitude before drug application, C is the drug concentration and H is the Hill coefficient.

[2] = test system: Kv7.1/KCNE1 channels; assay: Reversibility of AC-10 current inhibition by washout, with or without UV irradiation
[3] = biological target: T1, Kv7.1/KCNE1; assay: Current inhibition in CHO cells stably expressing Kv7.1/KCNE1
Description: Figure 5 PAL-based approach to identify AC binding site. (a) Schematic view of the PAL-based approach to investigate the binding site of AC-1. (b) Concentration-response curve for AC-10, the UV-active diazirine derivate of AC-1. The inhibitory effect of AC-10 was determined in CHO cells stably expressing Kv7.1/KCNE1. Inhibition was determined as percent change in current amplitude at the end of the depolarizing test pulse to +40 mV (±s.e.m.). (c) A new cDNA-construct (Kv7.1myc-2A-KCNE1myc in pXOOM) allows for functional expression of myc-tagged Kv7.1 and KCNE1 in HEK293T cells. In this construct, cDNAs of Kv7.1 and KCNE1 are linked via the T2A peptide sequence, which mediates co-translational protein cleavage. (d) Western blot analysis of affinity purified Kv7.1 and KCNE1 proteins. Kv7.1myc was purified using myc-agarose beads KCNE1 was purified using anti-KCNE1 coupled protein-A-sepharose beads (right). In both western blots, ‘+' indicates transfected cells, ‘−' indicates non-transfected control cells. Antibodies used for affinity purification are detected in ‘+' and ‘−'. […] It should be noted, that KCNE1, as a myc-tagged protein, should also be purified using the myc-agarose beads. […] Thus, KCNE1 expression was instead proven using the KCNE1 antibody. (e) Functional expression of Kv7.1myc-2A-KCNE1myc in HEK293T cells (scale bars indicate 1 nA, 1 s).

[4] = test system: homomeric Kv7.1 channels; assay: AC-10 on homomeric Kv7.1 channels

Row | Structure (SMILES) | inhibition at 10 µM [1] | also measured
1 | Cc1cc(Cl)ccc1OC(C)(C)C(=O)NC1C2CC3CC1CC(NC(=O)CC(C)C)(C3)C2 (stereo not shown) [AC-9] | 78.6 ± 3.3% | –
2 | Cc1cc(Cl)ccc1OC(C)(C)C(=O)NC1[C@@H]2CC3C[C@H]1CC(NC(=O)CCC1(C)N=N1)(C3)C2 (stereo partly shown) [AC-10, 2-(4-chloro-2-methyl-phenoxy)-2-methyl-N-[(1 R,3 S)-5-[3-(3-methyldiazirin-3-yl)propanoylamino]-2-adamantyl]propanamide] | – | inhibition after 38 min washout ([2]; after UV irradiation): 75%; inhibition after 38 min washout ([2]; non UV-activated): 40%; Hill-coeff. [3]: 1.7; IC50 ([3]; +40 mV): 16 nM; inhibition of homomeric Kv7.1 channels [4]: did not inhibit
3 | Cc1cc(Cl)ccc1OC(C)(C)C(=O)NC1C2CC3CC1CC(NS(=O)(=O)N(C)C)(C3)C2 (stereo not shown) [AC-7] | 38 ± 4.4% | –
4 | CC(C)(Oc1cccc(C(F)(F)F)c1)C(=O)NC1C2CC3CC1CC(NS(C)(=O)=O)(C3)C2 (stereo not shown) [AC-3] | 73.7 ± 2.9% | –

Further lines, with some results ahead:

Row | inhibition at 10 µM [1] | Structure (SMILES) | also measured
5 | 74.5 ± 6.2% | CCOC(=O)NC12CC3CC(C1)C(NC(=O)C(C)(C)Oc1ccc(Cl)cc1C)C(C3)C2 (stereo not shown) [AC-8] | –
6 | 4.2 ± 6.1% | Cc1cc(Cl)ccc1OC(C)(C)C(=O)NC1[C@@H]2CC3C[C@H]1CC(N)(C3)C2 (stereo partly shown) [AC-4, N-[(1 R,3 S)-5-amino-2-adamantyl]-2-(4-chloro-2-methyl-phenoxy)-2-methyl-propanamide] | –
7 | 64.6 ± 6.6% | Cc1cc(Cl)ccc1OC(C)(C)C(=O)NC1C2CC3CC1CC(C(=O)O)(C3)C2 (stereo not shown) [AC-6] | –
8 | 40.9 ± 1.4% | Cc1cc(Cl)ccc1OC(C)(C)C(=O)NC1C2CC3CC1CC(O)(C3)C2 (stereo not shown) [AC-5] | –
9 | 86.8 ± 3% | Cc1cc(Cl)ccc1OC(C)(C)C(=O)NC1C2CC3CC1CC(NS(C)(=O)=O)(C3)C2 (stereo not shown) [AC-2] | –
